# Where two headings read alike, the source gives them in different places.
# Columns and labels:
# [1] = test system: test plant species in Direct Seeded Rice; assay: Postemergence herbicidal activity in direct seeded rice (Table 13); format: in vivo; conditions: for pest or weed control at 35 g/ha / pest or weed control at 70 g/ha: post-emergence, 504 h; for pest or weed control at 35 g/ha: 35 g ai/ha; for pest or weed control at 70 g/ha: 70 g ai/ha
# In short: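 Visual injury scores (0 no injury to 100 complete kill) taken 20-22 days after treatment were converted by probit analysis into GR20–GR90 doses. Treatment was an overhead track spray at 187 L/ha onto second-to-third true leaf plants, using acetone/DMSO (final 16.2%/0.5%) with Agri-dex crop oil; solvent blank served as control.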
# APESV = assay: Pre-emergent Test III, preemergent activity in wheat and barley; format: in vivo, Apera spica-venti
# Description: (§1) Pre-emergent Test III. Seeds of test species were planted into square plastic pots (10 cm wide) containing sandy loam soil. After planting, all pots were sub-irrigated 16 h prior to compound application. A weighed amount, determined by the highest rate to be tested, of each test compound was placed in a 25 mL glass vial and was dissolved in 4 mL of a 97:3 v/v mixture of acetone and DMSO to obtain concentrated stock solutions. […] The concentrated stock solutions obtained were diluted with 20 mL of an aqueous mixture containing water and 0.02% w/v (weight/volume) of Triton X-155 to obtain spray solutions containing the highest application rates. Additional application rates were obtained by serial dilution of 12 mL of the high rate solution into a solution containing 2 mL of 97:3 v/v mixture of acetone and DMSO and 10 mL of an aqueous mixture containing water and 0.02% w/v (weight/volume) of Triton X-155 to obtain 1⁄2×, 1⁄4×, 1⁄8× and 1/16× rates of the high rate. Compound requirements are based upon a 12 mL application volume at a rate of 187 liters per hectare (L/ha). Formulated compounds were applied to the soil surface with an overhead Mandel track sprayer equipped with […] nozzles calibrated to deliver 187 L/ha over an application area of 0.503 square meters. Control pots were sprayed in the same manner with the solvent blank. The treated pots and control pots were placed in a greenhouse as described above and watered through surface irrigation. After 21 d, the condition of the test pots as compared with that of the untreated pots was determined visually and scored on a scale of 0 to 100 percent where 0 corresponds to no herbicidal effect and 100 corresponds to plant death or lack of emergence from the soil. By applying the well-accepted probit analysis as described by J. Berkson in Journal of the American Statistical Society, 48, 565 (1953) and by D. Finney in “Probit Analysis” Cambridge University Press (1952), the above data can be used to calculate GR20, GR50, GR80 and GR90 values, which are defined as growth reduction factors that correspond to the effective dose of herbicide required to kill or control 20 percent, 50 percent, 80 percent or 90 percent, respectively, of a target plant.
# LAMSS = assay: as above; format: in vivo
# Description: as §1
# LOLSS = assay: as above; format: in vivo, Lolium multiflorum, Lolium rigidum
# Description: as §1
# HORSS = assay: as above; format: in vivo, Hordeum vulgare
# Description: as §1
# TRZSS = assay: as above; format: in vivo, Triticum aestivum
# Description: as §1
# [2] = BRAPP: broadleaf signalgrass, Brachiaria platyphylla, probit analysis
# [3] = CYPSS: sedge (Cyperus difformis, esculentus, iria), probit analysis
# [4] = ECHSS: barnyardgrass (Echinochloa crus-galli), junglerice (Echinochloa colonum), probit analysis
# [5] = LEFSS: sprangletop (Leptochloa chinensis, Leptochloa dubia), probit analysis
# [6] = SCPJU: Japanese bulrush, Scirpus juncoides, probit analysis
# [7] = SEBEX: hemp sesbania, Sesbania exaltata, probit analysis
# [8] = BRAPP: broadleaf signalgrass, Brachiaria platyphylla, read-out: Visual Growth Reduction (%) 21 Days After Application BRAPP
# [9] = CYPSS: sedge (Cyperus difformis, esculentus, iria), read-out: Visual Growth Reduction (%) 21 Days After Application CYPSS
# [10] = ECHSS: barnyardgrass (Echinochloa crus-galli), junglerice (Echinochloa colonum), read-out: Visual Growth Reduction (%) 21 Days After Application ECHSS
# [11] = LEFSS: sprangletop (Leptochloa chinensis, Leptochloa dubia), read-out: Visual Growth Reduction (%) 21 Days After Application LEFSS
# [12] = ORYSS: Oryza sativa, read-out: Visual Growth Reduction (%) 21 Days After Application ORYSS
# [13] = SCPJU: Japanese bulrush, Scirpus juncoides, read-out: Visual Growth Reduction (%) 21 Days After Application SCPJU
# [14] = SEBEX: hemp sesbania, Sesbania exaltata, read-out: Visual Growth Reduction (%) 21 Days After Application SEBEX
# [15] = 21 days after application, dose to kill or control 50%, probit analysis
# [16] = 21 days after application, dose to kill or control 80%, probit analysis
# [17] = 21 days after application, dose to kill or control 20%, probit analysis
compound,measurement,setting,value
COC(=O)c1nc(-c2ccc(Cl)c(F)c2)c(F)c(N)c1Cl [Compound 216],GR50 BRAPP,[1]; [2],8 g ai/ha
same,GR80 BRAPP,[1]; [2],27 g ai/ha
same,GR50 CYPSS,[1]; [3],10 g ai/ha
same,GR80 CYPSS,[1]; [3],70 g ai/ha
same,GR50 ECHSS,[1]; [4],4 g ai/ha
same,GR80 ECHSS,[1]; [4],15 g ai/ha
same,GR50 LEFSS,[1]; [5],8 g ai/ha
same,GR80 LEFSS,[1]; [5],23 g ai/ha
same,GR20 ORYSS,"[1]; ORYSS: Oryza sativa (crop), probit analysis",>70 g ai/ha
same,GR50 SCPJU,[1]; [6],1 g ai/ha
same,GR80 SCPJU,[1]; [6],1 g ai/ha
same,GR50 SEBEX,[1]; [7],1 g ai/ha
same,GR80 SEBEX,[1]; [7],1 g ai/ha
same,pest or weed control at 35 g/ha,[1]; [8],85 to 94%
same,pest or weed control at 70 g/ha,[1]; [8],85 to 94%
same,pest or weed control at 35 g/ha,[1]; [9],85 to 94%
same,pest or weed control at 70 g/ha,[1]; [9],85 to 94%
same,pest or weed control at 35 g/ha,[1]; [10],85 to 94%
same,pest or weed control at 70 g/ha,[1]; [10],95 to 100%
same,pest or weed control at 35 g/ha,[1]; [11],85 to 94%
same,pest or weed control at 70 g/ha,[1]; [11],95 to 100%
same,pest or weed control at 35 g/ha,[1]; [12],0 to 29%
same,pest or weed control at 70 g/ha,[1]; [12],0 to 29%
same,pest or weed control at 35 g/ha,[1]; [13],95 to 100%
same,pest or weed control at 70 g/ha,[1]; [13],95 to 100%
same,pest or weed control at 35 g/ha,[1]; [14],95 to 100%
same,pest or weed control at 70 g/ha,[1]; [14],95 to 100%
COC(=O)c1nc(-c2ccc(Br)c(F)c2)c(F)c(N)c1Cl [Compound 49],"Visual Growth Reduction (%) 21 Days After Application, APESV",APESV; 35 g ai/ha,F (30-44)
same,"Visual Growth Reduction (%) 21 Days After Application, APESV",APESV; 70 g ai/ha,E (45-59)
same,GR50 APESV,APESV; [15],>70 g ai/ha
same,GR80 APESV,APESV; [16],>70 g ai/ha
same,"Visual Growth Reduction (%) 21 Days After Application, LAMSS",LAMSS; 35 g ai/ha,A (95-100)
same,"Visual Growth Reduction (%) 21 Days After Application, LAMSS",LAMSS; 70 g ai/ha,A (95-100)
same,GR50 LAMSS,LAMSS; [15],1 g ai/ha
same,GR80 LAMSS,LAMSS; [16],3 g ai/ha
same,"Visual Growth Reduction (%) 21 Days After Application, LOLSS",LOLSS; 35 g ai/ha,G (0-29)
same,"Visual Growth Reduction (%) 21 Days After Application, LOLSS",LOLSS; 70 g ai/ha,G (0-29)
same,GR50 LOLSS,LOLSS; [15],>70 g ai/ha
same,GR80 LOLSS,LOLSS; [16],>70 g ai/ha
same,"Visual Growth Reduction (%) 21 Days After Application, HORSS",HORSS; 35 g ai/ha,G (0-29)
same,"Visual Growth Reduction (%) 21 Days After Application, HORSS",HORSS; 70 g ai/ha,G (0-29)
same,GR20 HORSS,HORSS; [17],>70 g ai/ha
same,"Visual Growth Reduction (%) 21 Days After Application, TRZSS",TRZSS; 35 g ai/ha,G (0-29)
same,"Visual Growth Reduction (%) 21 Days After Application, TRZSS",TRZSS; 70 g ai/ha,G (0-29)
same,GR20 TRZSS,TRZSS; [17],>70 g ai/ha
